Test results published in US5153181A, “Pharmaceutical compositions comprising organic polymers containing inorganic anionic groups and method of prophylaxis and treatment of retrovirus infections in mammals using said compositions” (priority 1986, dated 1992).
Where two headings read alike, the source gives them in different places.

Legend:
[1] = LD50 taken from published literature; conditions: in vivo; calculated from MW
Description: The LD50 values are known from the literature.
The results shown in FIGS. 1A and B allow to determine the concentration of the inhibitors which result in 90% or 99% inhibition. The quotient of the LD50 values (taken from published literature) and the inhibitor concentrations indicated in FIG. 1 is the efficiency index shown in Table I.

[2] = cited from earlier work
[3] = biological target: T1, SR-D-associated reverse transcriptase (Rous sarcoma virus - Schmidt-Ruppin B, UniProt O92956); type: biochemical
T1 construct: alpha/beta heterodimer cut from Gag-Pol polyprotein
T1 sequence (O92956 709-1567): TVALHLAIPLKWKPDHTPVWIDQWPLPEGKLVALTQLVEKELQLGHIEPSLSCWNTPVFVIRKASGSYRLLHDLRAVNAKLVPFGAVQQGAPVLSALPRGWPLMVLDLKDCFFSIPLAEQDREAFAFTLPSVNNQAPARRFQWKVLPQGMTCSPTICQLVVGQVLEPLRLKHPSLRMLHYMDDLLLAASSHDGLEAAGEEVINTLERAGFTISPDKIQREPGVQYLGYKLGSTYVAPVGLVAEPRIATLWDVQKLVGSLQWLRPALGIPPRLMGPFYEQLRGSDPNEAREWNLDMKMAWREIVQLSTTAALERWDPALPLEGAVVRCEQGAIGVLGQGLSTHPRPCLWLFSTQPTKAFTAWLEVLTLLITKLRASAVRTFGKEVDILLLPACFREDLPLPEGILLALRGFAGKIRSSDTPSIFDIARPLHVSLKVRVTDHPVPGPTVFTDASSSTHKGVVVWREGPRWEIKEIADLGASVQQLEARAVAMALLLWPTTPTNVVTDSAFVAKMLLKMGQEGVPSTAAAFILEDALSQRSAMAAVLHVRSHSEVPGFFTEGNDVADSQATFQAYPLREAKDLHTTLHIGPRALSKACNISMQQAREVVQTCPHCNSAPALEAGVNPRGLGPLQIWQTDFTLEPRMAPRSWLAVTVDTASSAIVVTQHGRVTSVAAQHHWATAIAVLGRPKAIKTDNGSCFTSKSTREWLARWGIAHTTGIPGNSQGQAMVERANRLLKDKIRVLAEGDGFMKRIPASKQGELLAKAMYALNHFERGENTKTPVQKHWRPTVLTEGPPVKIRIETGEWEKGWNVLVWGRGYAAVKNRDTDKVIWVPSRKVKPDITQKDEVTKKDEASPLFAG

[4] = known from the literature; cited from earlier work
[5] = poly(rA) template, oligo(dT)10 primer, FIGS. 1A and B

Row | Compound | Inhibition of RNA-dependent DNA synthesis (3H-TMP incorporation) [3, 5] | also measured
1 | O=C(O)P(=O)(O)O [foscarnet] | Somewhat less inhibitory | LD50 [1]: 500 mg/kg; Toxicity in clinical trials [2]: considerable toxicity
2 | Cc1ccc(C(=O)Nc2ccc(S(=O)(=O)O)c3cc(S(=O)(=O)O)cc(S(=O)(=O)O)c23)cc1NC(=O)c1cccc(NC(=O)Nc2cccc(C(=O)Nc3cc(C(=O)Nc4ccc(S(=O)(=O)O)c5cc(S(=O)(=O)O)cc(S(=O)(=O)O)c45)ccc3C)c2)c1 [suramin] |  | Inhibition of RNA-dependent DNA synthesis (3H-TMP incorporation) [3]: Somewhat less inhibitory; LD50 [4]: 40 mg/kg
3 | chondroitin sulfate | Low inhibitory effect | 
4 | dextran | Low inhibitory effect | 
5 | dextran sulfate MW 8,000 | efficient inhibitors | 
6 | dextran sulfate MW 500,000 | efficient inhibitors | 
7 | dextran sulfate MW 5000 | Low inhibitory effect | 
8 | diethylamine ethyl-dextran [DEAE-dextran] | Low inhibitory effect | 
9 | heparin | Low inhibitory effect | 
10 | pentosan polysulfate MW 5,000 | Somewhat less inhibitory | 
